Data set [1] is described as follows: ASSAY (III) ThT fibrillation assay for physical stability. Type of data set: physicochemical. The method in brief: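 Physical stability scored by ThT fluorescence (444 nm excitation, 485 nm emission) tracked every 20 min during 37 °C incubation with 960 rpm shaking, ThT at 1 μM final. Values are replicate means with SD at chosen times; HPLC against pramlintide standard gives initial and post-assay soluble concentrations.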

For data set [2], the target named is T1, rat amylin receptor (rat calcitonin receptor + rat RAMP 3) (Rattus norvegicus, UniProt P32214+Q9JJ73).
T1 construct: expressed in transfected cells; host or cells: BHK tk'ts 13 (transient, FuGENE 6), membranes
T1 sequence (P32214 25-479 isoform P32214-2 limits assumed): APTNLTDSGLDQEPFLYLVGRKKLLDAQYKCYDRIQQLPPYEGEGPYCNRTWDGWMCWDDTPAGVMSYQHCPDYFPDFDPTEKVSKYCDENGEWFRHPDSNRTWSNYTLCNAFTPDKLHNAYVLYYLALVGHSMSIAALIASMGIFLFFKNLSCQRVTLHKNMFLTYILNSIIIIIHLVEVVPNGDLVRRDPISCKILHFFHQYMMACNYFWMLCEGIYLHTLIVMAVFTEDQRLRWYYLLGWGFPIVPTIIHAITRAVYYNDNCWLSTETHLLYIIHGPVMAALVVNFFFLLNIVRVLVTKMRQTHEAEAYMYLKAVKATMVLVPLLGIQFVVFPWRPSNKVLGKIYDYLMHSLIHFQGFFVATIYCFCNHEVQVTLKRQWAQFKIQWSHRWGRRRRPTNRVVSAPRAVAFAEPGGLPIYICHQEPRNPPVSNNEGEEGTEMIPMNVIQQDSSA
T1 sequence (Q9JJ73 23-147 partner): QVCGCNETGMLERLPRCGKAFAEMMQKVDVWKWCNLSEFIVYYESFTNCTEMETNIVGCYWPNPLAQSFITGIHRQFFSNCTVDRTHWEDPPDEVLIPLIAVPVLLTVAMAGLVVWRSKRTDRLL
Kind of data set: ASSAY (VI) binding to the rat amylin receptor. The settings on record: for IC50: binding to rat amylin receptor, read-out: rAmylin-R bind IC50. The procedure, abridged:
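Membranes for this rat amylin receptor binding assay came from BHK tk′ts 13 cells. The cells were transiently transfected with rat calcitonin receptor using the FuGENE® 6 reagent from Roche, as the manufacturer recommends. The cells were collected approximately 48 hours after transfection, and membranes were then prepared.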

The mark [3] stands for this setting: Table 7, rat binding selectivity, rCTR IC50 / rAmylin-R IC50.
The mark [4] stands for this setting: Table 7a (preferred compounds), rat binding selectivity, rCTR IC50 / rAmylin-R IC50.
[5] abbreviates: ratio of rCTR bind IC50 to rAmylin-R bind IC50.

A word on the IC50: it is the concentration at which inhibition is half-maximal. `CC[C@H](C)[C@H](NC(=O)[C@H](C)NC(=O)CNC(=O)[C@H](Cc1ccccc1)NC(=O)[C@H](CC(N)=O)NC(=O)[C@@H]1CCCN1C(=O)[C@H](CO)NC(=O)[C@H](CO)NC(=O)[C@H](Cc1c[nH]cn1)NC(=O)[C@H](CCCNC(=N)N)NC(=O)[C@H](CC(C)C)NC(=O)[C@H](Cc1ccccc1)NC(=O)[C@H](CC(N)=O)NC(=O)[C@H](C)NC(=O)[C@H](CC(C)C)NC(=O)[C@H](CCCNC(=N)N)NC(=O)[C@H](CCC(N)=O)NC(=O)[C@@H](NC(=O)[C@H](C)NC(=O)[C@@H]1CSSC[C@H](NC(=O)[C@@H](N)CCCCNC(=O)COCCOCCNC(=O)CCCCCCCCCCCCCCCCCCC(=O)O)C(=O)N[C@@H](CC(N)=O)C(=O)N[C@@H]([C@@H](C)O)C(=O)N[C@@H](C)C(=O)N[C@@H]([C@@H](C)O)C(=O)N1)[C@@H](C)O)C(=O)N1CCC[C@H]1C(=O)N[C@@H](CO)C(=O)N[C@@H](CO)C(=O)N[C@H](C(=O)N[C@@H](CC(N)=O)C(=O)N[C@H](C(=O)NCC(=O)N[C@@H](CO)C(=O)N[C@@H](CC(N)=O)C(=O)N[C@H](C(=O)N[C@@H](Cc1ccc(O)cc1)C(N)=O)[C@@H](C)O)C(C)C)[C@@H](C)O` [Example 43]: in data set [1], the “ThT pH 4.0 lag time (h)” value worked out at 4 h. Moreover, in data set [2] (Table 7), the IC50 is 0.11 nM. The “Ratio rCT/rAmylin binding” value in data set [2] (setting [3]), in data set [2] (setting [4]) and in data set [2] (setting [5]) was 69.1 each time.
Take `CC[C@H](C)[C@H](NC(=O)[C@H](C)NC(=O)CNC(=O)[C@H](Cc1ccccc1)NC(=O)[C@H](CC(N)=O)NC(=O)[C@@H]1CCCN1C(=O)[C@H](CO)NC(=O)[C@H](CO)NC(=O)[C@H](Cc1c[nH]cn1)NC(=O)[C@H](CCCNC(=N)N)NC(=O)[C@H](CC(C)C)NC(=O)[C@H](Cc1ccccc1)NC(=O)[C@H](CC(N)=O)NC(=O)[C@H](C)NC(=O)[C@H](CC(C)C)NC(=O)[C@H](CCCNC(=N)N)NC(=O)[C@H](CCC(N)=O)NC(=O)[C@@H](NC(=O)[C@H](C)NC(=O)[C@@H]1CSSC[C@H](NC(=O)[C@@H](N)CCCCNC(=O)COCCOCCNC(=O)CCCCCCCCCCCCCCCCCCC(=O)O)C(=O)N[C@@H](CC(N)=O)C(=O)N[C@@H]([C@@H](C)O)C(=O)N[C@@H](C)C(=O)N[C@@H]([C@@H](C)O)C(=O)N1)[C@@H](C)O)C(=O)N1CCC[C@H]1C(=O)N[C@@H](CO)C(=O)N[C@@H](CO)C(=O)N[C@H](C(=O)N[C@@H](CC(N)=O)C(=O)N[C@H](C(=O)NCC(=O)N[C@@H](Cc1c[nH]cn1)C(=O)N[C@@H](CC(N)=O)C(=O)N[C@H](C(=O)N[C@@H](Cc1ccc(O)cc1)C(N)=O)[C@@H](C)O)C(C)C)[C@@H](C)O` [Example 91]: the “ThT pH 4.0 lag time (h)” value in data set [1] is on record as 4 h. Also, the IC50 in data set [2] (Table 7) worked out at 0.386 nM. For the same compound, the “Ratio rCT/rAmylin binding” value in data set [2] (setting [3]), in data set [2] (setting [4]) and in data set [2] (setting [5]) was 76.3 throughout.

The record behind these values is US9023789B2, “Amylin analogs and pharmaceutical compositions thereof” (Novo Nordisk A/S, priority 2012, dated 2015).
